From ChEMBL document CHEMBL1833945, “Synthesis and anticonvulsant activity of new N-Mannich bases derived from 5-cyclopropyl-5-phenyl- and 5-cyclopropyl-5-(4-chlorophenyl)-imidazolidine-2,4-diones” (Bioorg Med Chem, 2011)
Active and inactive are the calls of the source. No cut-off for these calls is given here.

Tests used:
Mus musculus [1] = assay: Anticonvulsant activity in CF1 albino mouse assessed as time to peak effect at 100 mg/kg, ip; assay type: functional; settings: route intraperitoneal
Mus musculus [2] = assay: Anticonvulsant activity in ip dosed CF1 albino mouse assessed as protection against maximal electroshock-induced seizures after 0.5 hrs; assay type: functional; settings: read-out: MED
Rattus norvegicus [3] = assay: Neurotoxicity in Sprague-Dawley albino rat assessed as motor impairment at 50 mg/kg, po after 2 hrs by rotarod test; assay type: toxicity, organism-based; set-up: dose 50 mg/kg, route oral; settings: in vivo
Rattus norvegicus [4] = assay: Anticonvulsant activity in po dosed Sprague-Dawley albino rat assessed as protection against maximal electroshock-induced seizures; assay type: functional
Mus musculus [5] = assay: Anticonvulsant activity in ip dosed CF1 albino mouse assessed as protection against subcutaneous pentylenetetrazole-induced seizures after 0.5 hrs; assay type: functional; settings: read-out: MED
[6] = Lipophilicity, log P of compound; assay type: physicochemical; settings: octanol/water
[7] = Neurotoxicity in oral dosed Sprague-Dawley albino rat assessed as motor impairment by rotarod test; assay type: toxicity, organism-based; settings: in vivo
Rattus norvegicus [8] = assay: Anticonvulsant activity in Sprague-Dawley albino rat assessed as protection against maximal electroshock-induced seizures at 30 mg/kg, po after 0.5 hrs; assay type: functional, organism-based; set-up: dose 30 mg/kg
Mus musculus [9] = assay: Neurotoxicity in CF1 albino mouse assessed as loss of rotard grasping at 300 mg/kg, ip after 4 hrs by rotarod test; assay type: toxicity, organism-based; set-up: dose 300 mg/kg, route intraperitoneal; settings: in vivo
Mus musculus [10] = assay: Anticonvulsant activity in CF1 albino mouse assessed as protection against electrically-induced seizure at 100 mg/kg, ip after 0.5 hrs by 6Hz psychomotor seizure test; assay type: functional, organism-based; set-up: dose 100 mg/kg
Rattus norvegicus [11] = assay: Neurotoxicity in Sprague-Dawley albino rat assessed as motor impairment at 30 mg/kg, po after 0.25 hrs by rotarod test; assay type: toxicity, organism-based; set-up: dose 30 mg/kg, route oral; settings: in vivo
Mus musculus [12] = assay: Anticonvulsant activity in CF1 albino mouse assessed as protection against electrically-induced seizure at 100 mg/kg, ip after 1 hrs by 6Hz psychomotor seizure test; assay type: functional, organism-based; set-up: dose 100 mg/kg
Rattus norvegicus [13] = assay: Neurotoxicity in Sprague-Dawley albino rat assessed as motor impairment at 30 mg/kg, po after 4 hrs by rotarod test; assay type: toxicity, organism-based; set-up: dose 30 mg/kg, route oral; settings: in vivo
Rattus norvegicus [14] = species: Rattus norvegicus; assay: Protective index, ratio of TD50 for neurotoxicity in Sprague-Dawley albino rat to ED50 for inhibition of maximal electroshock-induced seizures in Sprague-Dawley albino rat; assay type: functional
Rattus norvegicus [15] = species: Rattus norvegicus
Description: Protective index, ratio of TD50 for neurotoxicity in Sprague-Dawley albino rat to ED50 for inhibition of subcutaneous pentylenetetrazole-induced seizures in Sprague-Dawley albino rat

Rattus norvegicus [16] = assay: Neurotoxicity in Sprague-Dawley albino rat assessed as motor impairment at 50 mg/kg, po after 0.5 hrs by rotarod test; assay type: toxicity, organism-based; set-up: dose 50 mg/kg, route oral; settings: in vivo
Mus musculus [17] = assay: Anticonvulsant activity in ip dosed CF1 albino mouse assessed as protection against subcutaneous pentylenetetrazole-induced seizures after 4 hrs; assay type: functional; settings: read-out: MED
Mus musculus [18] = assay: Neurotoxicity in CF1 albino mouse assessed as loss of rotard grasping at 300 mg/kg, ip after 0.5 hrs by rotarod test; assay type: toxicity, organism-based; set-up: dose 300 mg/kg, route intraperitoneal; settings: in vivo
Rattus norvegicus [19] = assay: Anticonvulsant activity in po dosed Sprague-Dawley albino rat assessed as protection against subcutaneous pentylenetetrazole-induced seizures; assay type: functional
Rattus norvegicus [20] = assay: Anticonvulsant activity in Sprague-Dawley albino rat assessed as protection against maximal electroshock-induced seizures at 30 mg/kg, po after 2 hrs; assay type: functional, organism-based; set-up: dose 30 mg/kg
Mus musculus [21] = assay: Anticonvulsant activity in CF1 albino mouse assessed as protection against electrically-induced seizure at 100 mg/kg, ip after 2 hrs by 6Hz psychomotor seizure test; assay type: functional, organism-based; set-up: dose 100 mg/kg
Rattus norvegicus [22] = assay: Neurotoxicity in Sprague-Dawley albino rat assessed as motor impairment at 50 mg/kg, po after 1 hrs by rotarod test; assay type: toxicity, organism-based; set-up: dose 50 mg/kg, route oral; settings: in vivo
Rattus norvegicus [23] = assay: Anticonvulsant activity in Sprague-Dawley albino rat assessed as protection against subcutaneous pentylenetetrazole-induced seizures at 50 mg/kg, po after 0.25 hrs; assay type: functional, organism-based; set-up: dose 50 mg/kg
Rattus norvegicus [24] = assay: Anticonvulsant activity in po dosed Sprague-Dawley albino rat assessed as time to peak effect; assay type: functional
Rattus norvegicus [25] = assay: Neurotoxicity in Sprague-Dawley albino rat assessed as motor impairment at 50 mg/kg, po after 4 hrs by rotarod test; assay type: toxicity, organism-based; set-up: dose 50 mg/kg, route oral; settings: in vivo
Rattus norvegicus [26] = assay: Anticonvulsant activity in Sprague-Dawley albino rat assessed as protection against maximal electroshock-induced seizures at 30 mg/kg, po after 1 hrs; assay type: functional, organism-based; set-up: dose 30 mg/kg
Rattus norvegicus [27] = assay: Neurotoxicity in Sprague-Dawley albino rat assessed as motor impairment at 30 mg/kg, po after 0.5 hrs by rotarod test; assay type: toxicity, organism-based; set-up: dose 30 mg/kg, route oral; settings: in vivo
Rattus norvegicus [28] = assay: Anticonvulsant activity in Sprague-Dawley albino rat assessed as protection against maximal electroshock-induced seizures at 30 mg/kg, po after 4 hrs; assay type: functional, organism-based; set-up: dose 30 mg/kg
Rattus norvegicus [29] = assay: Neurotoxicity in Sprague-Dawley albino rat assessed as motor impairment at 50 mg/kg, po after 0.25 hrs by rotarod test; assay type: toxicity, organism-based; set-up: dose 50 mg/kg, route oral; settings: in vivo
Rattus norvegicus [30] = assay: Anticonvulsant activity in Sprague-Dawley albino rat assessed as protection against maximal electroshock-induced seizures at 30 mg/kg, po after 0.25 hrs; assay type: functional, organism-based; set-up: dose 30 mg/kg
Rattus norvegicus [31] = assay: Neurotoxicity in Sprague-Dawley albino rat assessed as motor impairment at 30 mg/kg, po after 1 hrs by rotarod test; assay type: toxicity, organism-based; set-up: dose 30 mg/kg, route oral; settings: in vivo
Mus musculus [32] = assay: Anticonvulsant activity in ip dosed CF1 albino mouse assessed as protection against electrically-induced seizure by 6Hz psychomotor seizure test; assay type: functional
Mus musculus [33] = assay: Anticonvulsant activity in ip dosed CF1 albino mouse assessed as protection against maximal electroshock-induced seizures after 4 hrs; assay type: functional; settings: read-out: MED
Rattus norvegicus [34] = assay: Neurotoxicity in Sprague-Dawley albino rat assessed as motor impairment at 30 mg/kg, po after 2 hrs by rotarod test; assay type: toxicity, organism-based; set-up: dose 30 mg/kg, route oral; settings: in vivo

What does the source list for O=C1NC(=O)C(c2ccccc2)(C2CC2)N1 (centres undefined)?
Time (Mus musculus [1]): 2 h; minimal effective dose (Mus musculus [2]): 30 mg/kg; Activity (Rattus norvegicus [3]): Non-toxic; ED50 (Rattus norvegicus [4]): 5.76 mg/kg; minimal effective dose (Mus musculus [5]): 30 mg/kg; logP [6]: 1.66; TD50 [7]: 77.6 mg/kg; Activity (Rattus norvegicus [8]): Active; Activity (Mus musculus [9]): Toxic; Activity (Mus musculus [10]): Active; Activity (Rattus norvegicus [11]): Non-toxic; Activity (Mus musculus [12]): Active; Activity (Rattus norvegicus [13]): Non-toxic; PI (Rattus norvegicus [14]): 13.47; PI (Rattus norvegicus [15]): 1.35; Activity (Rattus norvegicus [16]): Non-toxic; minimal effective dose (Mus musculus [17]): 100 mg/kg; Activity (Mus musculus [18]): Toxic; ED50 (Rattus norvegicus [19]): 57.3 mg/kg; Activity (Rattus norvegicus [20]): Active; Activity (Mus musculus [21]): Active; Activity (Rattus norvegicus [22]): Non-toxic; Activity (Rattus norvegicus [23]): inactive; Time (Rattus norvegicus [24]): 2 h; Activity (Rattus norvegicus [25]): Non-toxic; Activity (Rattus norvegicus [26]): Active; Activity (Rattus norvegicus [27]): Non-toxic; Activity (Rattus norvegicus [28]): Active; Activity (Rattus norvegicus [29]): Non-toxic; Activity (Rattus norvegicus [30]): Active; Activity (Rattus norvegicus [31]): Non-toxic; ED50 (Mus musculus [32]): 26.1 mg/kg; minimal effective dose (Mus musculus [33]): 30 mg/kg; Activity (Rattus norvegicus [34]): Non-toxic
